What all share (type): biochemical
One experiment addresses MMP-9 (Homo sapiens, UniProt P14780). As to the kind of experiment: In Vitro Gelatinase Assay (MMP-9). The settings on record: human neutrophil gelatinase B. The method, then:
The enzyme activity is measured by the rate of the color increase. The thiopeptide substrate was made up fresh as a 20 mM stock in 100% DMSO and the DTNB was dissolved in 100% DMSO as a 100 mM stock and stored in the dark at room temperature. The substrate and the DTNB were diluted together to 1 mM with substrate buffer (50 mM HEPES, pH 7.5, 5 mM CaCl2) before use. […] The assay buffer, enzyme. […] The increase in OD405 was plotted and the slope of the line was calculated. The slope represents the reaction rate.

The target of a further experiment is MMP-13 (Homo sapiens, UniProt P45452). As to the kind of experiment: MMP-13 inhibition (Table 1). The settings on record: read-out: IC50 (nM) MMP-13.
Another experiment deals with T1, TACE (Homo sapiens, UniProt P78536).
T1 construct: purchased Immunex
T1 sequence (P78536 215-824): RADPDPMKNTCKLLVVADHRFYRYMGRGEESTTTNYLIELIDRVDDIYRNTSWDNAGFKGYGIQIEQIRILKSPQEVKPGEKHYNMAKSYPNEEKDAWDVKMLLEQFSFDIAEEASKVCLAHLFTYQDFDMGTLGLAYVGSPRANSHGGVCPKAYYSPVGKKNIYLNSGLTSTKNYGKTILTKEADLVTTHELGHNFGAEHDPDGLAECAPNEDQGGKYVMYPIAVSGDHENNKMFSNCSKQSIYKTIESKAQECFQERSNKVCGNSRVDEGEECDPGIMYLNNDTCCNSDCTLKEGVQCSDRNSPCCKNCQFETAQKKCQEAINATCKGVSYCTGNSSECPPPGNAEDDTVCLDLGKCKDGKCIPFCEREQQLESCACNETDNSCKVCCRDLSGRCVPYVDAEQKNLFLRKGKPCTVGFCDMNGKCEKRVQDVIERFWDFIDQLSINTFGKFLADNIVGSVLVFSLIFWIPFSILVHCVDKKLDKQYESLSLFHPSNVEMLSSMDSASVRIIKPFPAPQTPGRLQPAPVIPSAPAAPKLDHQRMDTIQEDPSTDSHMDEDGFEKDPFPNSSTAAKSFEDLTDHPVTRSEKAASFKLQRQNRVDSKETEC
Kind of experiment: Procedure for Measuring TACE Inhibition. The procedure: Procedure for Measuring TACE Inhibition
The plates were incubated for 10 minutes at room temperature. The reaction was initiated by addition of a fluorescent peptidyl substrate (final concentration 100 μM) to each well with shaking on a shaker for 5 sec.
The reaction was read (excitation 340 nm, emission 420 nm) for 10 min. and the increase in fluorescence over time was plotted as a linear line. The slope of the line was calculated and this represents the reaction rate. […] The mean (x±sem) of the control rate was calculated and compared for statistical significance (p<0.05) with drug-treated rates using Dunnett's multiple comparison test.

The target of another experiment is T2, MMP-1 (Homo sapiens, UniProt P03956).
T2 construct: human recombinant fibroblast collagenase (truncated, mw=18,828)
T2 sequence (P03956 100-269 limits assumed): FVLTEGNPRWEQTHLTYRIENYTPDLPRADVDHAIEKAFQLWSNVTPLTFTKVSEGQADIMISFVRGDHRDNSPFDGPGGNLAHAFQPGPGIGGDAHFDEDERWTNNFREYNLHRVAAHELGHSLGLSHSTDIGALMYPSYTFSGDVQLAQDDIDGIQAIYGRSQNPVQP
As to the kind of experiment: In Vitro Collagenase Assay (MMP-1). The settings on record: human recombinant fibroblast collagenase. The source says: In Vitro Collagenase Assay
This assay was based on the cleavage of a peptide substrate ((Dnp-Pro-Cha-Gly-Cys(Me)-His-Ala-Lys(NMa)-NH2), available from Peptide International, Inc.) by collagenase releasing the fluorescent NMa group which was quantitated on the fluorometer as disclosed in Bickett et al., "A High Throughput Fluorogenic Substrate for Interstitial Collagenase (MMP-1) and Gelatinase (MMP-9)", Anal. Biochem., 212:58-64, (1993). Dnp quenches the NMa fluorescence in the intact substrate.
The assay was run in HCBC assay buffer (50 mM HEPES, pH 7.0, 5 mM Ca^+2, 0.02% Brij, 0.5% Cysteine), with human recombinant fibroblast collagenase (truncated, mw=18,828. from Wyeth-Ayerst Research, Radnor, Pa.). The substrate was dissolved in methanol and stored frozen in 1 mM aliquots. Collagenase was stored frozen in buffer in 25 μM aliquots. In conducting the assay, the substrate was dissolved in HCBC buffer to a final concentration of 10 μM and collagenase to a final concentration of 5 nM. The compounds being examined were dissolved in methanol, DMSO, or HCBC. The methanol and DMSO were diluted in HCBC to <1.0%. The compounds were added to a 96 well plate containing enzyme and the reaction was started by the addition of substrate.
The reaction was read (excitation 340 nm, emission 444 nm) for 10 min. and the increase in fluorescence over time was plotted as a linear line. The slope of the line was calculated representing the reaction rate. The linearity of the reaction rate was confirmed (r^2 >0.85). The mean (x±sem) of the control rate was calculated and compared for statistical significance (p<0.05) with drug-treated rates using Dunnett's multiple comparison test.

For orientation: IC50 means the concentration needed to halve the response being measured.

MMP-9, sequence (P14780 94-707): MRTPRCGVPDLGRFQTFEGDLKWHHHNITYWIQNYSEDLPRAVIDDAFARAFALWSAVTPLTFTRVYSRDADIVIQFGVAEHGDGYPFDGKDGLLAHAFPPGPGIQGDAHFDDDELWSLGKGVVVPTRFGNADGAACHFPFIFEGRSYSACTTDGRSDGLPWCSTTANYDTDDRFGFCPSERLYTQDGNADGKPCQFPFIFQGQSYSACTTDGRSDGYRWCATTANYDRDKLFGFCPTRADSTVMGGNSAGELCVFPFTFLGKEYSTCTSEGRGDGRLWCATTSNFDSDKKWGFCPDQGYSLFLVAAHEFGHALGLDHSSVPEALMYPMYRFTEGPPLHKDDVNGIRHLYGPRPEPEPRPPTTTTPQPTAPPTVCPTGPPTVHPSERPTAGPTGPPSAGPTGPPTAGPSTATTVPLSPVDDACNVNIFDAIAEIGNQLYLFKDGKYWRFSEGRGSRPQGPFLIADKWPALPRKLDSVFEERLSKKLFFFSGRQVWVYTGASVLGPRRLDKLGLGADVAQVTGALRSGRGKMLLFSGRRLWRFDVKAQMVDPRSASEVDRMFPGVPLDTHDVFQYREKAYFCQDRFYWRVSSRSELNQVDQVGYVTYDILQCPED

For the compound `COc1ccc(S(=O)(=O)N2Cc3ccccc3N(C(=O)c3cccc(C(F)(F)F)c3)CC2C(=O)NO)cc1` (centres unmarked) [Example 1, 4-(4-Methoxybenzenesulfonyl)-1-(3-trifluoromethylbenzoyl)-2,3,4,5-tetrahydro-1H-[1,4]-benzodiazepine-3-carboxylic acid, Hydroxyamide], the IC50 on MMP-9 turned out to be 5.1 nM; on MMP-13, 3.7 nM; at TACE, 352 nM; on MMP-1, 96.2 nM.
As to `COc1ccc(S(=O)(=O)N2Cc3ccccc3N(S(=O)(=O)c3ccc(C)cc3)CC2C(=O)NO)cc1` (centres unmarked) [Example 2, 4-(4-Metboxybenzenesulfonyl)-1-(4-methylphenylsulfonyl)-2,3,4,5-tetrahydro-1H-[1,4]benzodiazepine-3-carboxylic acid, Hydroxyamide], the IC50 against MMP-9 stood at 14.1 nM; on MMP-13 it was 5.1 nM; against TACE, 391 nM.
As to `COc1ccc(S(=O)(=O)N2Cc3ccccc3N(S(C)(=O)=O)CC2C(=O)NO)cc1` (centres unmarked) [Example 3, 1-Methanesulfonyl-4-(4-methoxybenzenesulfonyl)-2,3,4,5-tetrahydro-1H-[1,4]benzodiazepine-3-carboxylic acid, Hydroxyamide], the IC50 against MMP-9 amounted to 7.9 nM; on MMP-13, 3 nM; on TACE, 104 ± 8 nM; at MMP-1 it was 156 nM.
The corresponding values for `COc1ccc(S(=O)(=O)N2CC(C(=O)NO)N(S(=O)(=O)c3ccc(OC)cc3)Cc3ccccc32)cc1` (centres unmarked) [Example 4, 1,4-Bis-(4-Methoxybenzenesulfonyl)-2,3,4,5-tetrahydro-1H-[1,4]benzodiazepine-3-carboxylic acid, Hydroxyamide] are 12.2 nM, 4.3 nM, 101 ± 3 nM and 224 nM.
On to `COc1ccc(S(=O)(=O)N2Cc3ccccc3N(C(=O)c3ccccc3)CC2C(=O)NO)cc1` (centres unmarked) [Example 5, 1-Benzoyl-4-(4-methoxybenzenesulfonyl)-2,3,4,5-tetrahydro-1H-[1,4]benzodiazepine-3-carboxylic acid, Hydroxyamide], for which the IC50 stood at 0.56 nM at MMP-9, 0.4 nM on MMP-13 and 95 ± 10 nM against TACE.
Regarding `COc1ccc(S(=O)(=O)N2Cc3ccccc3N(C(C)=O)CC2C(=O)NO)cc1` (centres unmarked) [Example 6, 1-Acetyl-4-(4-methoxybenzenesulfonyl)-2,3,4,5-tetrahydro-1H-[1,4]benzodiazepine-3-carboxylic acid, Hydroxyamide], the IC50 at MMP-9 was found to be 1.4 nM; on MMP-13 it was 1 nM; at TACE, 103 nM; at MMP-1 it was 18.4 nM.
The corresponding values for `COc1ccc(S(=O)(=O)N2Cc3ccccc3N(C(=O)c3cccnc3)CC2C(=O)NO)cc1` (centres unmarked) [Example 7, 4-(4-Methoxybenzenesulfonyl)-1-(3-pyridinylcarbonyl)-2,3,4,5-tetrahydro-1H-[1,4]benzodiazepine-3-carboxylic acid, Hydroxyamide] are 0.6 nM, 0.4 nM, 77.7 nM and 20.4 nM.
For the compound `COc1ccc(S(=O)(=O)N2Cc3ccccc3N(C(=O)c3cccs3)CC2C(=O)NO)cc1` (centres unmarked) [Example 8, 4-(4-Methoxybenzenesulfonyl)-1-(2-thienylcarbonyl)-2,3,4,5-tetrahydro-1H-[1,4]benzodiazepine-3-carboxylic acid, Hydroxyamide], the IC50 was 1.1 nM at MMP-13 and 19.7 nM at MMP-1.
On to `COCC(=O)N1CC(C(=O)NO)N(S(=O)(=O)c2ccc(OC)cc2)Cc2ccccc21` (centres unmarked) [Example 9, 1-Methoxyacetyl-4-(4-methoxybenzenesulfonyl)-2,3,4,5-tetrahydro-1H-[1,4]benzodiazepine-3-carboxylic acid, Hydroxyamide], for which the IC50 against MMP-9 was 1.34 nM; at MMP-13, 1.19 nM; on TACE, 95.2 nM; at MMP-1, 34.1 nM.
For `CCCS(=O)(=O)N1CC(C(=O)NO)N(S(=O)(=O)c2ccc(OC)cc2)Cc2ccccc21` (centres unmarked) [Example 10, 4-(4-Methoxybenzenesulfonyl)-1-(propane-1-sulfonyl)-2,3,4,5-tetrahydro-1H-[1,4]benzodiazepine-3-carboxylic acid, Hydroxyamide], in that order: 7 nM, 2.8 nM, 91 ± 10 nM and 183 nM.
As to `COc1ccc(S(=O)(=O)N2Cc3ccccc3N(C(=O)c3cc(F)ccc3C)CC2C(=O)NO)cc1` (centres unmarked) [Example 11, 4-(4-Methoxybenzenesulfonyl)-1-(2-methyl-5-fluorobenzoyl)-2,3,4,5-tetrahydro-1H-[1,4]benzodiazepine-3-carboxylic acid, Hydroxyamide], the concentration for half-maximal inhibition (IC50) was found to be 3.9 nM at MMP-9, 2.3 nM at MMP-13, 271 nM at TACE and 55.4 nM on MMP-1.
`COc1ccc(S(=O)(=O)N2Cc3ccccc3N(C(=O)CCc3ccccc3)CC2C(=O)NO)cc1` (centres unmarked) [Example 12, 4-(4-Methoxybenzenesulfonyl)-1-(3-phenylpropionyl)-2,3,4,5-tetrahydro-1H-[1,4]benzodiazepine-3-carboxylic acid, Hydroxyamide]: the half-inhibitory concentration (IC50) against MMP-9 worked out at 17.9 nM; at TACE it was 207 nM; at MMP-1, 523 nM.
In the case of `COc1ccc(S(=O)(=O)N2Cc3ccccc3N(C(=O)c3ccncc3)CC2C(=O)NO)cc1` (centres unmarked) [Example 13, 4-(4-Methoxybenzenesulfonyl)-1-(4-pyridinylcarbonyl)-2,3,4,5-tetrahydro-1H-[1,4]benzodiazepine-3-carboxylic acid, Hydroxyamide], the IC50 was found to be 9.8 nM against MMP-9, 2 nM at MMP-13, 154 nM at TACE and 54.9 nM at MMP-1.
With `COc1ccc(S(=O)(=O)N2Cc3ccccc3N(C(=O)c3ccccc3-c3ccccc3)CC2C(=O)NO)cc1` (centres unmarked) [Example 14, 1-([1,1'-Biphenyl]-2-carbonyl)-4-(4-methoxybenzenesulfonyl)-2,3,4,5-tetrahydro-1H-[1,4]benzodiazepine-3-carboxylic acid, Hydroxyamide], the values for the IC50 against MMP-9, at MMP-13 and at MMP-1 were 12.6 nM, 3.7 nM and 542 nM, respectively.
For `COc1ccc(S(=O)(=O)N2Cc3ccccc3N(C(=O)c3ccc(Cl)cc3Cl)CC2C(=O)NO)cc1` (centres unmarked) [Example 31, 1-(2,4-Dichlorobenzoyl)-4-(4-methoxybenzenesulfonyl)-2,3,4,5-tetrahydro-1H-[1,4]benzodiazepine-3-carboxylic acid, Hydroxyamide], in that order: 3 nM, 2.6 nM and 75.5 nM.
For `COc1ccc(S(=O)(=O)N2Cc3ccccc3N(C(=O)C3CC3)CC2C(=O)NO)cc1` (centres unmarked) [Example 55, 1-(Cyclopropylcarbonyl)-4-(4-methoxybenzenesulfonyl)-2,3,4,5-tetrahydro-1H-[1,4]benzodiazepine-3-carboxylic acid, Hydroxyamide], the IC50 against MMP-9 was 4 nM; against TACE, 68.5 nM; on MMP-1 it was 171 nM.
In the case of `COc1ccc(S(=O)(=O)N2Cc3ccccc3N(C(=O)C3CCCCC3)CC2C(=O)NO)cc1` (centres unmarked) [Example 57, 1-(Cyclohexylcarbonyl)-4-(4-methoxybenzenesufonyl)-2,3,4,5-tetrahydro-1H-[1,4]benzodiazepine-3-carboxylic acid, Hydroxyamide], the IC50 at MMP-9 is 12.7 nM; against TACE it was 318 nM; at MMP-1, 465 nM.
For the compound `COCCN1CC(C(=O)NO)N(S(=O)(=O)c2ccc(OC)cc2)Cc2ccccc21` (centres unmarked) [Example 62, 4-(4-Methoxybenzenesulfonyl)-1-(2-methoxyetbyl)-2,3,4,5-tetrahydro-1H-[1,4]benzodiazepine-3-carboxylic acid, Hydroxyamide], the results for the half-inhibitory concentration (IC50) against MMP-9, at MMP-13 and on MMP-1 were 100 nM, 100 nM and 1000 nM, respectively.

(Values after patent US6071903A, “2,3,4,5-tetrahydro-1H-[1,4]-benzodiazepine-3-hydroxyamic acids” (American Cyanamid Company, priority 1999, dated 2000).)
